Source: ChEMBL document CHEMBL5131456, “Amyloidogenic immunoglobulin light chain kinetic stabilizers comprising a simple urea linker module reveal a novel binding sub-site” (Bioorg Med Chem Lett, 2022)

Assays:
[1] = Stabilization of fluorescein-labelled amyloidogenic full length immunoglobulin light chain dimer (unknown origin) assessed as concentration of stabilizer that affords 50% maximal proteinase K protection by protease coupled fluorescence polarization assay; set-up: species or system Homo sapiens
Homo sapiens = species on record: Homo sapiens; test: Stabilization of unlabeled amyloidogenic full length immunoglobulin light chain dimer (unknown origin) assessed as fold proteinase K protection at 10 uM by size-exclusion chromatography
[2] = Stabilization of fluorescein-labelled amyloidogenic full length immunoglobulin light chain dimer T46L/F49Y mutant (unknown origin) assessed as concentration of stabilizer that affords 50% maximal proteinase K protection by protease coupled fluorescence polarization assay; set-up: species or system Homo sapiens

| SMILES | EC50 [1] | fold change (FC) (Homo sapiens) | EC50 [2] |
| --- | --- | --- | --- |
| CCN(CC)c1ccc2c(C)c(CCC(=O)NCCc3cccnc3)c(=O)oc2c1 | 634 nM | 0.61 | 2110 nM |
| CCN(CC)c1ccc2c(C)c(CC(=O)NCCc3ccccc3)c(=O)oc2c1 | 1830 nM | 0.28 | 853 nM |
| CCN(CC)c1ccc2c(C)c(CCC(=O)NCCN(C)C)c(=O)oc2c1 | 6800 nM | 0.13 | > 10000 nM |
| CCN(CC)c1ccc2c(C)c(CCNC(=O)CCc3cccnc3)c(=O)oc2c1 | 1180 nM | 0.55 | 1610 nM |
| CCN(CC)c1ccc2c(C)c(CCNC(=O)CCc3ccccc3)c(=O)oc2c1 | 490 nM | 0.17 | 513 nM |
| CCN(CC)c1ccc2c(C)c(CC(=O)NCCN(C)C)c(=O)oc2c1 | 1750 nM | 0.39 | 2660 nM |
| CCN(CC)c1ccc2c(C)cc(=O)oc2c1 |  | 0.28 |  |

The next lines start with the values.

| EC50 [1] | fold change (FC) (Homo sapiens) | EC50 [2] | SMILES |
| --- | --- | --- | --- |
| 233 nM | 0.74 | 377 nM | CCN(CC)c1ccc2c(C)c(CCNC(=O)NCc3cncc4ccccc34)c(=O)oc2c1 |
| 462 nM | 0.66 | 810 nM | CCN(CC)c1ccc2c(C)c(CCNC(=O)NCc3cccnc3)c(=O)oc2c1 |
|  | 0.91 |  | CCN(CC)c1ccc2c(C)c(CCOC(=O)NCc3cccc(-c4c[nH]cn4)c3)c(=O)oc2c1 |
| 111 nM | 0.66 | 27.4 nM | CCN(CC)c1ccc2c(C)c(CCNC(=O)NCc3ccc4ccccc4c3)c(=O)oc2c1 |
| 1040 nM | 0.5 | 2050 nM | CCN(CC)c1ccc2c(C)c(CCNC(=O)NCCc3cccnc3)c(=O)oc2c1 |
| 140 nM | 0.81 | 74.1 nM | CCN(CC)c1ccc2c(C)c(CCNC(=O)NCc3cccc(-c4c[nH]cn4)c3)c(=O)oc2c1 |
| 348 nM | 0.69 | 381 nM | CCN(CC)c1ccc2c(C)c(CCNC(=O)NCc3ccccc3)c(=O)oc2c1 |
